Measured values reported in ChEMBL document CHEMBL1127194, “1,3- And 1,5-bisbiphenylyl substituted 3-metcaptotriazoles as angiotensin II receptor antagonists” (Bioorg Med Chem Lett, 1993).

system: Rattus norvegicus; test: Tested for the decrease in blood pressure at a dose of ~10 mg/kg by intravenous administration for ~24h; type: functional

Compound | Blood pressure [mmHg]
CCCCc1nc(Cl)c(CO)n1Cc1ccc(-c2ccccc2-c2nnn[nH]2)cc1 [LOSARTAN] | 37

molecular target: Oryctolagus cuniculus angiotensin II receptor; test: Inhibition of angiotensin II induced contractions in rabbit aortic ring preparation.

Compound | pA2
O=C(O)c1ccccc1-c1ccc(CSc2nc(Cc3ccccc3)n(Cc3ccc(-c4ccccc4C(=O)O)cc3)n2)cc1 | 7
CCCCCCCc1nc(S(=O)(=O)Cc2ccc(-c3ccccc3C(=O)O)cc2)nn1Cc1ccc(-c2ccccc2C(=O)O)cc1 | 6.5
CCCCCCCc1nc(SCc2ccc(-c3ccccc3C(=O)O)cc2)nn1Cc1ccc(-c2ccccc2C(=O)O)cc1 | 6.7
CCCCCc1nc(SCc2ccc(-c3ccccc3C(=O)O)cc2)nn1Cc1ccc(-c2ccccc2C#N)cc1 | < 5
CCCCc1nc(SCc2ccc(-c3ccccc3C(=O)O)cc2)n(Cc2ccc(-c3ccccc3C(=O)O)cc2)n1 | 7
CCCCCCc1nc(S(=O)(=O)Cc2ccc(-c3ccccc3C(=O)O)cc2)nn1Cc1ccc(-c2ccccc2C(=O)O)cc1 | 8.1
CCCCc1nc(SCc2ccc(-c3ccccc3C(=O)OC)cc2)nn1Cc1ccc(-c2ccccc2C(=O)OC)cc1 | < 5
CCCCCc1nc(SCc2ccc(-c3ccccc3C(=O)OC)cc2)nn1Cc1ccc(-c2ccccc2C(=O)OC)cc1 | < 5
CCCCCc1nc(SCc2ccc(-c3ccccc3C(=O)O)cc2)nn1Cc1ccc(-c2ccccc2C(=O)O)cc1 | 8.4
CCCCCc1nc(SCc2ccc(-c3ccccc3C#N)cc2)nn1Cc1ccc(-c2ccccc2C(=O)O)cc1 | 6.3
CCCCCCc1nc(SCc2ccc(-c3ccccc3C(=O)O)cc2)nn1Cc1ccc(-c2ccccc2C(=O)O)cc1 | 8

Results, then the compound that gave them:

pA2 | Compound
6.1 | CCCCCCCCc1nc(S(=O)(=O)Cc2ccc(-c3ccccc3C(=O)O)cc2)nn1Cc1ccc(-c2ccccc2C(=O)O)cc1
7.5 | CC(C)Cc1nc(SCc2ccc(-c3ccccc3C(=O)O)cc2)nn1Cc1ccc(-c2ccccc2C(=O)O)cc1
8.3 | CCCCc1nc(SCc2ccc(-c3ccccc3C(=O)O)cc2)nn1Cc1ccc(-c2ccccc2C(=O)O)cc1
6.1 | O=C(O)c1ccccc1-c1ccc(CSc2nc(Cc3ccccc3)nn2Cc2ccc(-c3ccccc3C(=O)O)cc2)cc1
5.9 | CCCCCCCc1nc(SCc2ccc(-c3ccccc3C(=O)O)cc2)n(Cc2ccc(-c3ccccc3C(=O)O)cc2)n1
7.2 | CCCCCc1nc(SCc2ccc(-c3ccccc3C(=O)O)cc2)n(Cc2ccc(-c3ccccc3C(=O)O)cc2)n1

system: Rattus norvegicus; test: Tested for the decrease in blood pressure at a dose of ~5 mg/kg by intravenous administration for ~24h; type: functional

Compound | Blood pressure [mmHg]
CCCCCc1nc(SCc2ccc(-c3ccccc3C(=O)O)cc2)nn1Cc1ccc(-c2ccccc2C(=O)O)cc1 | 24
